Reference: patent US20240327417A1, “HETEROCYCLIC COMPOUNDS” (BeiGene Switzerland GmbH, priority 2021, published 2024)

Tests used:
[1] = molecular target: T1, Full length DGKα (D21-10BG, SignalChem) (Homo sapiens, UniProt P23743); test: Biochemical DGK IC50 assay (ADP-Glo, lipid micelle substrate), DGKα; settings: 7.5 nM enzyme, 140 μM ATP, 80 μM DAG, 1 hour preincubation, 1 hour reaction, room temperature, read-out: IC50s for DGKα
T1 construct: Full length DGKα (D21-10BG, SignalChem); purchased SignalChem D21-10BG
Description: (§1) Enzymatic reactions of DGKζ, DGKα and DGKδ were performed using ADP-Glo assay with lipid micelle substrate. […] Full length DGKα (D21-10BG, SignalChem) and full length DGKδ (D23-10G, SignalChem) were purchased. Lipid micelle was prepared by dissolving DAG (Sigma, 317505-10MG) and PS (Sigma, P7769-100MG) with chloroform which was firtherly removed by rotary evaporation. The obtained residue was resuspended in buffer containing 25 mM HEPES pH 7.0, 0.5 mM EDTA and 160 mM Octyl β-D glucopyranoside by vigorous mixing and ultrasonic (IID, Scientz).
(§2) The inhibition activities testing for the compound disclosed herein were carried out at room temperature in assay buffer containing 50 mM HEPES, 10 mM MgCl2, 0.01% BSA, 0.1 mM Na3VO4, 0.005% Tween-20 and 0.01 mM CaCl2. Compounds in DMSO were dispensed into wells of a black 384 well plate (Corning 4514) using D300e digital dispenser (Tecan). The ranges of compounds final concentration were 1.55˜10000 nM or 23.3˜150000 nM. 3 μL 2× enzyme solution was added to wells. […] After 1 hour reaction, 5 μL ADP-Glo reagent (Promga V9101) was added and incubated for 40 minutes. 10 μL Kinase Detection reagent was added and incubated for 30 minutes. Luminescence was measured on a microplate reader (PHERAstar FSX, BMG labtech). The IC50s are calculated based on inhibition of enzyme activity in the presence of increasing concentrations of compounds.

[2] = molecular target: T2, Full length DGKζ (in-house protein M1-V929) (Homo sapiens, UniProt Q13574); test: Biochemical DGK IC50 assay (ADP-Glo, lipid micelle substrate), DGKζ; settings: 0.5 nM enzyme, 140 μM ATP, 80 μM DAG, 1 hour preincubation, 1 hour reaction, room temperature, read-out: IC50s for DGKζ
T2 construct: His (N); TEV cleavage site (N); made in house; host or cells: Sf9 insect cells (baculovirus, Bac-to-Bac)
Description: as §1, §2
Human His-TEV-DGK-zeta-pFastBac1 and human baculovirus samples was generated using the Bac-to-Bac baculovirus expression system (Invitrogen) according to the manufacturer's protocol. The DNA used for expression of DGK-zeta, have SEQ ID Nos: 1. Baculovirus amplification was achieved using infected SF9 cells at 1:2000 virus/cells ratios, and grown for 96 hours at 27° C. post-transfected.
The expression scaled up for each protein was carried out in the […] from CORNING. 4 L of 3×10^6 cells/mL Sf9 cells (Expression System, Invitrogen) grown in SF900™ II SFM insect medium (Expression System) was infected with virus stock at 1:200 virus/cells ratio, and grown for 48 hours at 27° C. post-transfection. The infected cell culture was harvested by centrifugation at 6000 rpm for 15 min 4° C. in a SORVALL LYNX6000 centrifuge. The cell pellets were stored at −80° C.
Full length human DGKζ produced as described above, was purified from Sf9 baculovirus-infected insect cell paste. The cells were lysed using sonication method, and the lysates were clarified by centrifugation.

T2 sequence (Q13574 1-929 isoform Q13574-4): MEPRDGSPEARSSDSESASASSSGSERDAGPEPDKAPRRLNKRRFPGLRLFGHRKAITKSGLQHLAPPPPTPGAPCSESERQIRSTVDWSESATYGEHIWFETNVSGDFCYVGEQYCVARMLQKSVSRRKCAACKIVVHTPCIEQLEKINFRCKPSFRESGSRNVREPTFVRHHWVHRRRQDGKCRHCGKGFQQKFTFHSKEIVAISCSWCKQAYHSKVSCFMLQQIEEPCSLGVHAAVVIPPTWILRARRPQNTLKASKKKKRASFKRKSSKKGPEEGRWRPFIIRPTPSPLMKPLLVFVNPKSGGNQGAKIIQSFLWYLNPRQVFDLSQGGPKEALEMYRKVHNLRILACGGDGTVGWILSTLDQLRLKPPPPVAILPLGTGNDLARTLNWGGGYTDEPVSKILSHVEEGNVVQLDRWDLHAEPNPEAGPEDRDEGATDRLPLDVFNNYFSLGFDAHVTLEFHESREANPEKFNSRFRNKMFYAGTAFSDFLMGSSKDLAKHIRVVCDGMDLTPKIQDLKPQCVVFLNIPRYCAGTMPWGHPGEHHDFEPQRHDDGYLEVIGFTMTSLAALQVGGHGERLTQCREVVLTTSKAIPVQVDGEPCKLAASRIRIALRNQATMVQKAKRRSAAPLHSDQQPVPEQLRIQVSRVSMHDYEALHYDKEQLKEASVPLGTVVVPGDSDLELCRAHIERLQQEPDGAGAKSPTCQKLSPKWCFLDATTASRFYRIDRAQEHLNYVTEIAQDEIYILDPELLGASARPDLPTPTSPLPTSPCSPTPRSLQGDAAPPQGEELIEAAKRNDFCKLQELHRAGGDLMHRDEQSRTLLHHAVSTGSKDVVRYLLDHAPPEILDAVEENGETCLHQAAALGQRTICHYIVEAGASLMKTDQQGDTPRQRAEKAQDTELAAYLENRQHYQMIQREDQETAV
T1 sequence (P23743 whole entry): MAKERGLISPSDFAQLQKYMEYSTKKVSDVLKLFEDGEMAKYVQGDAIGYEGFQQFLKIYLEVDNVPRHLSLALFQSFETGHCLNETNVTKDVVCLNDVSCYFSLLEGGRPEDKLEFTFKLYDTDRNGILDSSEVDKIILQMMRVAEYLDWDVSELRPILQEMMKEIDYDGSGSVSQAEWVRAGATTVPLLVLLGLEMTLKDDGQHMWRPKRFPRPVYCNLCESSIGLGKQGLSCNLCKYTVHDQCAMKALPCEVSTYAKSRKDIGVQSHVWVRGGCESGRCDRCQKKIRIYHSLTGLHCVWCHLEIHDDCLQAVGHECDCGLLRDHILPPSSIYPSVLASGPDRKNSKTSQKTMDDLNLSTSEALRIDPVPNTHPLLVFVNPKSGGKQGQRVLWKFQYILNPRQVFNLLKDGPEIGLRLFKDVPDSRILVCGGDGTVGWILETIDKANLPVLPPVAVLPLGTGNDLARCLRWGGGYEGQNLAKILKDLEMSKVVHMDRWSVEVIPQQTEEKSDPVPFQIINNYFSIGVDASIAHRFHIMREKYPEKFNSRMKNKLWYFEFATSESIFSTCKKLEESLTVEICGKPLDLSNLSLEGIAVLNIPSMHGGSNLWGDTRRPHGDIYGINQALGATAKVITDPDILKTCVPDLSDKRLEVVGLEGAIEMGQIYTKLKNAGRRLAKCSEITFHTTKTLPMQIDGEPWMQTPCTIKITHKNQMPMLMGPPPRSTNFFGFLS

Compound	IC50 [1] [nM]	IC50 [2] [nM]
CC(c1ccc2nccnc2c1)N1C[C@H](C)N(c2cc(=O)n(C)n3cc(CC#N)nc23)C[C@H]1C (single isomer, unassigned) [Compound A1b]	2750	> 10000
[2H]C([2H])([2H])n1c(=O)cc(N2C[C@@H](CC)N(C(C)c3ccc4nc(C)sc4c3)C[C@@H]2CC)c2nc(CC#N)cn21 (single isomer, unassigned) [Compound A94b]	3790	1150
CC[C@H]1CN(C(C)c2ccc3nccnc3c2)[C@H](CC)CN1c1cc(=O)n(C)n2cc(COC)nc12 (single isomer, unassigned) [Compound A8a]	1310	25
CC[C@H]1CN(C(C)c2cc3sc(C)nc3cc2F)[C@H](CC)CN1c1cc(=O)n(C)n2cc(CC#N)nc12 (single isomer, unassigned) [Compound A61b]	5520	2000
CC[C@H]1CN(C(C)c2cc3scnc3cc2F)[C@H](CC)CN1c1cc(=O)n(C)n2cc(CC#N)nc12 (single isomer, unassigned) [Compound A59b]	1580	2610
CC[C@H]1CN(C(C)c2ccc(OC(C)C)nc2)[C@H](CC)CN1c1cc(=O)n(C)n2cc(CC#N)nc12 (single isomer, unassigned) [Compound A45a]	941	8
CC[C@@H]1CN(c2c(C#N)c(=O)n(C)n3cc(CC#N)nc23)[C@@H](C)CN1C(C)c1ccc(C2CC2)nc1 (single isomer, unassigned) [Compound A74a]	682	166
Cc1cnc2ccc(C(C)N3C[C@H](C)N(c4cc(=O)n(C)n5cc(CC#N)nc45)C[C@H]3C)cc2n1 (single isomer, unassigned) [Compound A2b]	11600	11
CC(c1ccc2c(c1)OCCO2)N1C[C@H](C)N(c2cc(=O)n(C)n3cc(CC#N)nc23)C[C@H]1C (stereo partly drawn) [Compound A24, 2-(8-((2S,5R)-4-(1-(2,3-dihydrobenzo[b][1,4]dioxin-6-yl)ethyl)-2,5-dimethylpiperazin-1-yl)-5-methyl-6-oxo-5,6-dihydroimidazo[1,2-b]pyridazin-2-yl)acetonitrile]	2870	230
[2H]C([2H])([2H])c1nc2ccc(C(C)N3C[C@H](CC)N(c4cc(=O)n(C)n5cc(CC#N)nc45)C[C@H]3CC)cc2s1 (single isomer, unassigned) [Compound A96b]	2080	861
CCc1nc2ccc(C(C)N3C[C@H](C)N(c4cc(=O)n(C)n5cc(CC#N)nc45)C[C@H]3CC)cc2s1 (single isomer, unassigned) [Compound A101b]	2360	1110
CC[C@@H]1CN(c2cc(=O)n(C)n3cc(CC#N)nc23)[C@@H](C)CN1C(C)c1ccc2nc(C)sc2c1 (stereo partly drawn) [Compound A55, 2-(8-((2S,5R)-5-ethyl-2-methyl-4-(1-(2-methylbenzo[d]thiazol-6-yl)ethyl)piperazin-1-yl)-5-methyl-6-oxo-5,6-dihydroimidazo[1,2-b]pyridazin-2-yl)acetonitrile]	789	108
COC(C)c1cn2c(n1)c(N1C[C@@H](C)N(C(C)c3ccc4nccnc4c3)C[C@@H]1C)cc(=O)n2C (stereo partly drawn) [Compound A5, 8-((2S,5R)-2,5-dimethyl-4-(1-(quinoxalin-6-yl)ethyl)piperazin-1-yl)-2-(1-methoxyethyl)-5-methylimidazo[1,2-b]pyridazin-6(5H)-one]	22000	11000

The remaining lines, values ahead:

IC50 [1] [nM]	IC50 [2] [nM]	Compound
18	36	CC[C@@H]1CN(c2cc(=O)n(C)n3cc(CC#N)nc23)[C@@H](C)CN1C(C)c1ccc2ccsc2n1 (stereo partly drawn) [Compound A86, 2-(8-((2S,5R)-5-ethyl-2-methyl-4-(1-(thieno[2,3-b]pyridin-6-yl)ethyl)piperazin-1-yl)-5-methyl-6-oxo-5,6-dihydroimidazo[1,2-b]pyridazin-2-yl)acetonitrile]
2.7	49	CC#CCc1cn2c(n1)c(N1C[C@@H](CC)N(C(C)c3ccc4nc(C)sc4n3)C[C@@H]1CC)cc(=O)n2C (single isomer, unassigned) [Compound A115b]
26	15	CC[C@H]1CN(C(C)c2ccc3nc(C)sc3n2)[C@H](CC)CN1c1c(F)c(=O)n(C)n2cc(CC#N)nc12 (single isomer, unassigned) [Compound A82a]
671	877	CC[C@H]1CN(C(C)c2ccc(C(C)(C)F)nc2)[C@H](CC)CN1c1cc(=O)n(C)n2cc(CC#N)nc12 (single isomer, unassigned) [Compound A46b]
339	57	CC[C@H]1CN(C(C)c2ccc(C3CC3)nc2F)[C@H](CC)CN1c1cc(=O)n(C)n2cc(CC#N)nc12 (single isomer, unassigned) [Compound A42a]
386	802	CC[C@H]1CN(C(C)c2ccc(C(C)(F)F)nc2)[C@H](CC)CN1c1cc(=O)n(C)n2cc(CC#N)nc12 (single isomer, unassigned) [Compound A90b]
340	51	CC[C@H]1CN(C(C)c2ccc3nc(C)sc3c2F)[C@H](C)CN1c1cc(=O)n(C)n2cc(CC#N)nc12 (single isomer, unassigned) [Compound A119b]
79	24	[2H]C([2H])([2H])c1nc2ccc(C(C)N3C[C@H](CC)N(c4cc(=O)n(C([2H])([2H])[2H])n5cc(CC#N)nc45)C[C@H]3CC)cc2s1 (single isomer, unassigned) [Compound A97a]
486	579	CC(c1ccc2c(c1)OC(C)(C)CO2)N1C[C@H](C)N(c2c(C#N)c(=O)n(C)n3cc(CC#N)nc23)C[C@H]1C (single isomer, unassigned) [Compound A27b]
101	27	[2H]C([2H])([2H])C(c1ccc2nc(C)sc2c1)N1C[C@H](CC)N(c2cc(=O)n(C([2H])([2H])[2H])n3cc(CC#N)nc23)C[C@H]1CC (single isomer, unassigned) [Compound A95a]
155	73	CC[C@H]1CN(C(C)c2ccc(C(F)(F)F)cc2)[C@H](CC)CN1c1cc(=O)n(C)n2cc(CC#N)nc12 (single isomer, unassigned) [Compound A91a]
90	284	CC[C@H]1CN(C(C)c2ccc(OC(C)C)cc2)[C@H](CC)CN1c1cc(=O)n(C)n2cc(CC#N)nc12 (stereo partly drawn) [Compound A51, 2-(8-((2S,5R)-2,5-diethyl-4-(1-(4-isopropoxyphenyl)ethyl)piperazin-1-yl)-5-methyl-6-oxo-5,6-dihydroimidazo[1,2-b]pyridazin-2-yl)acetonitrile]
66	61	CC[C@H]1CN(C(C)c2ccc3c(c2)OCO3)[C@H](CC)CN1c1cc(=O)n(C)n2cc(CC#N)nc12 (stereo partly drawn) [Compound A71, 2-(8-((2S,5R)-4-(1-(benzo[d][1,3]dioxol-5-yl)ethyl)-2,5-diethylpiperazin-1-yl)-5-methyl-6-oxo-5,6-dihydroimidazo[1,2-b]pyridazin-2-yl)acetonitrile]
575	132	CC[C@H]1CN(C(C)c2ccc3nc(C)sc3c2)[C@H](CC)CN1c1c(C#N)c(=O)n(C)n2cc(CC#N)nc12 (stereo partly drawn) [Compound A111, 2-(cyanomethyl)-8-((2S,5R)-2,5-diethyl-4-(1-(2-methylbenzo[d]thiazol-6-yl)ethyl)piperazin-1-yl)-5-methyl-6-oxo-5,6-dihydroimidazo[1,2-b]pyridazine-7-carbonitrile]
196	132	CCC(c1ccc2nc(C)sc2n1)N1C[C@H](CC)N(c2cc(=O)n(C)n3cc(CC#N)nc23)C[C@H]1CC (single isomer, unassigned) [Compound A99a]
510	182	CC[C@@H]1CN(c2cc(=O)n(C)n3cc(CC#N)nc23)[C@@H](COC)CN1C(C)c1ccc2nc(C)sc2n1 (single isomer, unassigned) [Compound A108b]
